This is an account of results in patent US8741915B2, “Dihydropyrimidin-2(1H)-one compounds as S-nitrosoglutathione reductase inhibitors” (N30 Pharmaceuticals, Inc., priority 2009, dated 2014).

SMILES strings stand for the structures.

GSNOR, sequence (P11766 whole entry): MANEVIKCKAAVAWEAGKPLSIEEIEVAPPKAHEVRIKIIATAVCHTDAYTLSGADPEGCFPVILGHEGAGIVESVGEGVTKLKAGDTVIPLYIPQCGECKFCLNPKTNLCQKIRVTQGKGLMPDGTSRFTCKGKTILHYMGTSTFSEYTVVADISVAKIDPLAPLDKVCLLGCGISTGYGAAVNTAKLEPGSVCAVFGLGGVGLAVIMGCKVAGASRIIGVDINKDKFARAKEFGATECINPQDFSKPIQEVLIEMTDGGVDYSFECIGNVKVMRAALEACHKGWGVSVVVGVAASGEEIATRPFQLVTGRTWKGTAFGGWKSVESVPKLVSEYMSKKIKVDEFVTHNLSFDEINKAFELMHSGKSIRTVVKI

One assay addresses GSNOR (Homo sapiens (Human), UniProt P11766). Nature of the assay: GSNOR assay (inhibition of GSNOR activity in vitro, change in 340 nm absorbance with GSNO/NADH). The note with it: GSNOR IC50, Table 1, racemates and separated enantiomers.
In turn, `CCOc1cc([C@@H]2NC(=O)NC(c3cnn(C)c3)=C2c2ccsc2)cc(C(=O)O)c1O` [Example 146, (S)-3-ethoxy-2-hydroxy-5-(6-(1-methyl-1H-pyrazol-4-yl)-2-oxo-5-(thiophen-3-yl)-1,2,3,4-tetrahydropyrimidin-4-yl)benzoic acid] displayed an IC50 of 13 nM.
`Cn1cc(C2=C(c3ccsc3)[C@H](c3ccc(C(=O)O)c(O)c3)NC(=O)N2)cn1` [Example 169, (S)-2-hydroxy-4-(6-(1-methyl-1H-pyrazol-4-yl)-2-oxo-5-(thiophen-3-yl)-1,2,3,4-tetrahydropyrimidin-4-yl)benzoic acid] gave an IC50 of 23 nM.

Still in this assay, the particulars now being: IC50, upper bound (about <).
As for `COc1cc(C2NC(=O)NC(c3ccccc3)=C2c2ccccc2)cc([N+](=O)[O-])c1O` (centres unmarked) [Example 9, 4-(4-hydroxy-3-methoxy-5-nitrophenyl)-5,6-diphenyl-3,4-dihydropyrimidin-2(1H)-one], the IC50 was < 100 nM.
Take `CCOc1cc(C2NC(=O)NC(c3ccccc3)=C2c2ccccc2F)cc([N+](=O)[O-])c1O` (centres unmarked) [Example 13, 4-(3-ethoxy-4-hydroxy-5-nitrophenyl)-5-(2-fluorophenyl)-6-phenyl-3,4-dihydropyrimidin-2(1H)-one]: the half-inhibitory concentration (IC50) was < 100 nM.
Still for that read-out and setting: then `CCOc1cc(C2NC(=O)NC(c3ccccc3)=C2c2cccc(OC)c2)cc([N+](=O)[O-])c1O` (centres unmarked) [Example 23, 4-(3-ethoxy-4-hydroxy-5-nitrophenyl)-5-(3-methoxyphenyl)-6-phenyl-3,4-dihydropyrimidin-2(1H)-one], with < 100 nM; and `CCOc1cc(C2NC(=O)NC(c3ccccc3)=C2c2ccccc2C)cc([N+](=O)[O-])c1O` (centres unmarked) [Example 26, 4-(3-ethoxy-4-hydroxy-5-nitrophenyl)-6-phenyl-5-o-tolyl-3,4-dihydropyrimidin-2(1H)-one], with < 1000 nM.
As for `CCOc1cc(C2NC(=O)NC(c3ccccc3)=C2c2cccc(C#N)c2)cc([N+](=O)[O-])c1O` (centres unmarked) [Example 29, 3-(4-(3-ethoxy-4-hydroxy-5-nitrophenyl)-2-oxo-6-phenyl-1,2,3,4-tetrahydropyrimidin-5-yl)benzonitrile], the IC50 was < 100 nM.
Consider `CCOc1cc(C2NC(=O)NC(c3cccc(C#N)c3)=C2c2ccccc2)cc([N+](=O)[O-])c1O` (centres unmarked) [Example 53, 3-(6-(3-ethoxy-4-hydroxy-5-nitrophenyl)-2-oxo-5-phenyl-1,2,3,6-tetrahydropyrimidin-4-yl)benzonitrile], for which the IC50 is < 100 nM.
Still for that read-out and setting: then `CCOc1cc(C2NC(=O)NC(c3ccc4c(c3)OCO4)=C2c2ccccc2)cc([N+](=O)[O-])c1O` (centres unmarked) [Example 61, 6-(benzo[d][1,3]dioxol-5-yl)-4-(3-ethoxy-4-hydroxy-5-nitrophenyl)-5-phenyl-3,4-dihydropyrimidin-2(1H)-one], with < 100 nM; and `CCOc1cc(C2NC(=O)NC(c3ccc(C#N)cc3)=C2c2ccccc2)cc([N+](=O)[O-])c1O` (centres unmarked) [Example 63, 4-(6-(3-ethoxy-4-hydroxy-5-nitrophenyl)-2-oxo-5-phenyl-1,2,3,6-tetrahydropyrimidin-4-yl)benzonitrile], with < 100 nM; and `CCOc1cc(C2NC(=O)NC(c3ccccc3)=C2c2ccccc2)cc(C#N)c1O` (centres unmarked) [Example 69, 3-ethoxy-2-hydroxy-5-(2-oxo-5,6-diphenyl-1,2,3,4-tetrahydropyrimidin-4-yl)benzonitrile], with < 1000 nM.
Same read-out and setting: then `CCOc1cc(C2NC(=O)NC(c3ccncc3)=C2c2ccccc2)cc([N+](=O)[O-])c1O` (centres unmarked) [Example 71, 4-(3-ethoxy-4-hydroxy-5-nitrophenyl)-5-phenyl-6-(pyridin-4-yl)-3,4-dihydropyrimidin-2(1H)-one], with < 100 nM.
In the case of `CCOc1cc(C2NC(=O)NC(c3ccc(NC(C)=O)cc3)=C2c2ccccc2)cc([N+](=O)[O-])c1O` (centres unmarked) [Example 73, N-(4-(6-(3-ethoxy-4-hydroxy-5-nitrophenyl)-2-oxo-5-phenyl-1,2,3,6-tetrahydropyrimidin-4-yl)phenyl)acetamide], the IC50 is < 100 nM.
In the case of `CCOc1cc(C2NC(=O)NC(c3cccc4ccccc34)=C2c2ccccc2)cc([N+](=O)[O-])c1O` (centres unmarked) [Example 81, 4-(3-ethoxy-4-hydroxy-5-nitrophenyl)-6-(naphthalen-1-yl)-5-phenyl-3,4-dihydropyrimidin-2(1H)-one], the IC50 was < 100 nM.
Regarding `CCOc1cc(C2NC(=O)NC(c3ccc(NC(=O)OC)cc3)=C2c2ccccc2)cc([N+](=O)[O-])c1O` (centres unmarked) [Example 83, methyl 4-(6-(3-ethoxy-4-hydroxy-5-nitrophenyl)-2-oxo-5-phenyl-1,2,3,6-tetrahydropyrimidin-4-yl)phenylcarbamate], the IC50 is < 100 nM.
For the compound `O=C1NC(c2ccccc2)=C(c2ccccc2)C(c2cccc(C(=O)O)c2)N1` (centres unmarked) [Example 93, 3-(2-oxo-5,6-diphenyl-1,2,3,4-tetrahydropyrimidin-4-yl)benzoic acid], the IC50 is < 100000 nM.
As for `O=C1NC(c2ccccc2)=C(c2ccccc2)C(c2ccc(O)c([N+](=O)[O-])c2)N1` (centres unmarked) [Example 95, 4-(4-hydroxy-3-nitrophenyl)-5,6-diphenyl-3,4-dihydropyrimidin-2(1H)-one], the concentration for half-maximal inhibition (IC50) was < 1000 nM.
As for `CCOc1cc(C2NC(=O)NC(c3ccco3)=C2c2ccccc2)cc([N+](=O)[O-])c1O` (centres unmarked) [Example 111, 4-(3-ethoxy-4-hydroxy-5-nitrophenyl)-6-(furan-2-yl)-5-phenyl-3,4-dihydropyrimidin-2(1H)-one], the IC50 is < 100 nM.
Same read-out and setting: then `CCOc1cc(C2NC(=O)NC(c3ccc(C(F)(F)F)cc3)=C2c2ccccc2)cc([N+](=O)[O-])c1O` (centres unmarked) [Example 113, 4-(3-ethoxy-4-hydroxy-5-nitrophenyl)-5-phenyl-6-(4-(trifluoromethyl)phenyl)-3,4-dihydropyrimidin-2(1H)-one], with < 100 nM; and `CCOc1cc([C@@H]2NC(=O)NC(c3cnn(C)c3)=C2c2ccsc2)cc(C(=O)O)c1O` [Example 146, (S)-3-ethoxy-2-hydroxy-5-(6-(1-methyl-1H-pyrazol-4-yl)-2-oxo-5-(thiophen-3-yl)-1,2,3,4-tetrahydropyrimidin-4-yl)benzoic acid], with < 100 nM; and `CCOc1cc(C2NC(=O)NC(c3ccccc3)=C2c2ccccc2)cc(O)c1C(=O)O` (centres unmarked) [Example 161, 2-ethoxy-6-hydroxy-4-(2-oxo-5,6-diphenyl-1,2,3,4-tetrahydropyrimidin-4-yl)benzoic acid], with < 100 nM.
On the same count and under the same terms, then `O=C1NC(c2ccccc2)=C(c2ccccc2)C(c2cc(O)c(C(=O)O)c(Cl)c2)N1` (centres unmarked) [Example 163, 2-chloro-6-hydroxy-4-(2-oxo-5,6-diphenyl-1,2,3,4-tetrahydropyrimidin-4-yl)benzoic acid], with < 100 nM; and `COc1cc(C2NC(=O)NC(c3ccccc3)=C2c2ccccc2)cc(O)c1C(=O)O` (centres unmarked) [Example 165, 2-hydroxy-6-methoxy-4-(2-oxo-5,6-diphenyl-1,2,3,4-tetrahydropyrimidin-4-yl)benzoic acid], with < 100 nM.
As for `Cn1cc(C2=C(c3ccccc3)C(c3ccc(C(=O)O)c(O)c3)NC(=O)N2)cn1` (centres unmarked) [Example 167, 2-hydroxy-4-(6-(1-methyl-1H-pyrazol-4-yl)-2-oxo-5-phenyl-1,2,3,4-tetrahydropyrimidin-4-yl)benzoic acid], the IC50 is < 100 nM.
Still for that read-out and setting: then `Cn1cc(C2=C(c3ccsc3)[C@H](c3ccc(C(=O)O)c(O)c3)NC(=O)N2)cn1` [Example 169, (S)-2-hydroxy-4-(6-(1-methyl-1H-pyrazol-4-yl)-2-oxo-5-(thiophen-3-yl)-1,2,3,4-tetrahydropyrimidin-4-yl)benzoic acid], with < 100 nM.
On to `CN(C)CCOc1cc(C2NC(=O)NC(c3ccccc3)=C2c2ccccc2)cc([N+](=O)[O-])c1O` (centres unmarked) [Example 170, 4-(3-(2-(dimethylamino)ethoxy)-4-hydroxy-5-nitrophenyl)-5,6-diphenyl-3,4-dihydropyrimidin-2(1H)-one], for which the IC50 is < 1000 nM.
Still for that read-out and setting: then `CCOc1cc(C2NC(=O)NC(C3CCCC3)=C2c2ccccc2)cc([N+](=O)[O-])c1O` (centres unmarked) [Example 172, 6-cyclopentyl-4-(3-ethoxy-4-hydroxy-5-nitrophenyl)-5-phenyl-3,4-dihydropyrimidin-2(1H)-one], with < 100 nM; and `CCOc1cc(C2NC(=O)NC(C3CCCCC3)=C2c2ccsc2)cc([N+](=O)[O-])c1O` (centres unmarked) [Example 174, 6-cyclohexyl-4-(3-ethoxy-4-hydroxy-5-nitrophenyl)-5-(thiophen-3-yl)-3,4-dihydropyrimidin-2(1H)-one], with < 100 nM.
For `CCOc1cc(C2NC(=O)NC(c3ccccc3)=C2C2CCCCC2)cc([N+](=O)[O-])c1O` (centres unmarked) [Example 177, 5-cyclohexyl-4-(3-ethoxy-4-hydroxy-5-nitrophenyl)-6-phenyl-3,4-dihydropyrimidin-2(1H)-one], the IC50 is < 100 nM.

As usually defined, the IC50 is the concentration that inhibits the measured activity by half.
